From US8927500B2, “Peptidomimetic macrocycles” (Aileron Therapeutics, Inc., priority 2012, dated 2015)
Where a SMILES comes first, the peptide text is derived from it. Bridges are numbered along the chain shown (N, C = ends). [ ]: non-standard residue; d: D form. R8 = C=CCCCCCC[C@@](C)(N)C(=O)O; Cba = N[C@@H](CC1CCC1)C(=O)O; hLeu = CC(C)CC[C@H](N)C(=O)O; S5 = C=CCCC[C@](C)(N)C(=O)O; Nle = CCCC[C@H](N)C(=O)O

Experiments:
[1] = biological target: MDM2 (Homo sapiens, UniProt Q00987); experiment: Competitive fluorescence polarization assay for MDM2; format: binding; settings: competitive FP assay, MDM2; for IC50: read-out: IC50 (MDM2); for Ki: read-out: Ki (MDM2)
MDM2, sequence (Q00987 1-125): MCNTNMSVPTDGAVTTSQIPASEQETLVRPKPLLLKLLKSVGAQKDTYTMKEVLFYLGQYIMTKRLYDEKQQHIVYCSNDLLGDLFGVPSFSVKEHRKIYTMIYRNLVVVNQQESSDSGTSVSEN

[2] = biological target: T1, MDMX (Homo sapiens, UniProt O15151); experiment: Competitive fluorescence polarization assay for MDMX; format: binding; settings: competitive FP assay; for IC50: read-out: IC50 (MDMX); for Ki: read-out: Ki (MDMX)
T1 sequence (O15151 1-125): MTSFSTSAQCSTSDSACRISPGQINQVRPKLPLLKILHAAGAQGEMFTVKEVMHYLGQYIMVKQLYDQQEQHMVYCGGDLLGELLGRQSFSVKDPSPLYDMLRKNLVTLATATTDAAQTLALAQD

| IC50 [1] | Ki [1] | IC50 [2] | Ki [2] | Structure (SMILES) |
| --- | --- | --- | --- | --- |
| 10 to 100 nM | < 10 nM | 10 to 100 nM | < 10 nM | CCCC[C@H](NC(=O)[C@H](C)NC(=O)[C@H](C)NC(=O)[C@]1(C)CCCC=CCCCCCC[C@@](C)(NC(=O)[C@H](Cc2ccccc2)NC(=O)[C@@H](NC(=O)[C@H](CC(C)C)NC(=O)[C@H](C)NC(=O)[C@H](C)NC(C)=O)[C@@H](C)O)C(=O)N[C@@H](CCC(=O)O)C(=O)N[C@@H](Cc2ccc(O)cc2)C(=O)N[C@@H](Cc2c[nH]c3ccccc23)C(=O)N[C@@H](C)C(=O)N[C@@H](CCC(N)=O)C(=O)N[C@@H](CC(C)C)C(=O)N1)C(=O)N[C@@H](C)C(N)=O [compound 375] (Ac-AALTF[R8]EYWAQL[S5]AA[Nle]A-NH2; staple 6-13) |
| 10 to 100 nM | < 10 nM | 10 to 100 nM | < 10 nM | CCCC[C@H](NC(=O)[C@H](C)NC(=O)[C@H](C)NC(=O)[C@]1(C)CCCC=CCCCCCC[C@@](C)(NC(=O)[C@H](Cc2ccccc2)NC(=O)[C@@H](NC(=O)[C@H](CC(C)C)NC(=O)[C@H](C)NC(=O)[C@H](C)NC(=O)[C@H](C)NC(C)=O)[C@@H](C)O)C(=O)N[C@@H](CCC(=O)O)C(=O)N[C@@H](Cc2ccc(O)cc2)C(=O)N[C@@H](Cc2c[nH]c3ccccc23)C(=O)N[C@@H](C)C(=O)N[C@@H](CCC(N)=O)C(=O)N[C@@H](CC(C)C)C(=O)N1)C(=O)N[C@@H](C)C(N)=O [compound 376] (Ac-AAALTF[R8]EYWAQL[S5]AA[Nle]A-NH2; staple 7-14) |
| 10 to 100 nM | < 10 nM | 10 to 100 nM | 10 to 100 nM | CCCC[C@H](NC(=O)[C@H](C)NC(=O)[C@H](C)NC(=O)[C@]1(C)CCCC=CCCCCCC[C@@](C)(NC(=O)[C@H](Cc2ccccc2)NC(=O)[C@@H](NC(=O)[C@H](CC(C)C)NC(C)=O)[C@@H](C)O)C(=O)N[C@@H](CCC(=O)O)C(=O)N[C@@H](Cc2ccc(O)cc2)C(=O)N[C@@H](Cc2c[nH]c3ccccc23)C(=O)N[C@@H](C)C(=O)N[C@@H](CCC(N)=O)C(=O)N[C@@H](CC(C)C)C(=O)N1)C(=O)N[C@@H](C)C(=O)N[C@@H](C)C(N)=O [compound 377] (Ac-LTF[R8]EYWAQL[S5]AA[Nle]AA-NH2; staple 4-11) |
| 10 to 100 nM | < 10 nM | 10 to 100 nM | 10 to 100 nM | CCCC[C@H](NC(=O)[C@H](C)NC(=O)[C@H](C)NC(=O)[C@]1(C)CCCC=CCCCCCC[C@@](C)(NC(=O)[C@H](Cc2ccccc2)NC(=O)[C@@H](NC(=O)[C@H](CC(C)C)NC(=O)[C@H](C)NC(C)=O)[C@@H](C)O)C(=O)N[C@@H](CCC(=O)O)C(=O)N[C@@H](Cc2ccc(O)cc2)C(=O)N[C@@H](Cc2c[nH]c3ccccc23)C(=O)N[C@@H](C)C(=O)N[C@@H](CCC(N)=O)C(=O)N[C@@H](CC(C)C)C(=O)N1)C(=O)N[C@@H](C)C(=O)N[C@@H](C)C(N)=O [compound 378] (Ac-ALTF[R8]EYWAQL[S5]AA[Nle]AA-NH2; staple 5-12) |
| 10 to 100 nM | < 10 nM | 10 to 100 nM | 10 to 100 nM | CCCC[C@H](NC(=O)[C@H](C)NC(=O)[C@H](C)NC(=O)[C@]1(C)CCCC=CCCCCCC[C@@](C)(NC(=O)[C@H](Cc2ccccc2)NC(=O)[C@@H](NC(=O)[C@H](CC(C)C)NC(=O)[C@H](C)NC(=O)[C@H](C)NC(C)=O)[C@@H](C)O)C(=O)N[C@@H](CCC(=O)O)C(=O)N[C@@H](Cc2ccc(O)cc2)C(=O)N[C@@H](Cc2c[nH]c3ccccc23)C(=O)N[C@@H](C)C(=O)N[C@@H](CCC(N)=O)C(=O)N[C@@H](CC(C)C)C(=O)N1)C(=O)N[C@@H](C)C(=O)N[C@@H](C)C(N)=O [compound 379] (Ac-AALTF[R8]EYWAQL[S5]AA[Nle]AA-NH2; staple 6-13) |
| 10 to 100 nM | < 10 nM | 10 to 100 nM | 10 to 100 nM | CCCC[C@H](NC(=O)[C@H](C)NC(=O)[C@H](C)NC(=O)[C@]1(C)CCCC=CCCCCCC[C@@](C)(NC(=O)[C@H](Cc2ccccc2)NC(=O)[C@@H](NC(=O)[C@H](CC(C)C)NC(C)=O)[C@@H](C)O)C(=O)N[C@@H](CCC(=O)O)C(=O)N[C@@H](Cc2ccc(O)cc2)C(=O)N[C@@H](Cc2c[nH]c3ccccc23)C(=O)N[C@@H](C)C(=O)N[C@@H](CCC(N)=O)C(=O)N[C@@H](CCC(C)C)C(=O)N1)C(=O)N[C@@H](C)C(=O)N[C@@H](C)C(N)=O [compound 381] (Ac-LTF[R8]EYWAQ[hLeu][S5]AA[Nle]AA-NH2; staple 4-11) |
| 10 to 100 nM | < 10 nM | 10 to 100 nM | < 10 nM | CCCC[C@H](NC(=O)[C@H](C)NC(=O)[C@H](C)NC(=O)[C@]1(C)CCCC=CCCCCCC[C@@](C)(NC(=O)[C@H](Cc2ccccc2)NC(=O)[C@@H](NC(=O)[C@H](CC(C)C)NC(=O)[C@H](C)NC(C)=O)[C@@H](C)O)C(=O)N[C@@H](CCC(=O)O)C(=O)N[C@@H](Cc2ccc(O)cc2)C(=O)N[C@@H](Cc2c[nH]c3ccccc23)C(=O)N[C@@H](C)C(=O)N[C@@H](CCC(N)=O)C(=O)N[C@@H](CCC(C)C)C(=O)N1)C(=O)N[C@@H](C)C(=O)N[C@@H](C)C(N)=O [compound 382] (Ac-ALTF[R8]EYWAQ[hLeu][S5]AA[Nle]AA-NH2; staple 5-12) |

Further lines, the compound ahead of its results:

| Structure (SMILES) | IC50 [1] | Ki [1] | IC50 [2] | Ki [2] |
| --- | --- | --- | --- | --- |
| CCCC[C@H](NC(=O)[C@H](C)NC(=O)[C@H](C)NC(=O)[C@]1(C)CCCC=CCCCCCC[C@@](C)(NC(=O)[C@H](Cc2ccccc2)NC(=O)[C@H](C)NC(=O)[C@H](C)NC(C)=O)C(=O)N[C@@H](CCC(=O)O)C(=O)N[C@@H](Cc2ccc(O)cc2)C(=O)N[C@@H](Cc2c[nH]c3ccccc23)C(=O)N[C@@H](C)C(=O)N[C@@H](CCC(N)=O)C(=O)N[C@@H](CC(C)C)C(=O)N1)C(=O)N[C@@H](C)C(N)=O [compound 371] (Ac-AAF[R8]EYWAQL[S5]AA[Nle]A-NH2; staple 4-11) | 100 to 1000 nM | 10 to 100 nM | 100 to 1000 nM | 10 to 100 nM |
| CCCC[C@H](NC(=O)[C@H](C)NC(=O)[C@H](C)NC(=O)[C@]1(C)CCCC=CCCCCCC[C@@](C)(NC(=O)[C@H](Cc2ccccc2)NC(=O)[C@H](C)NC(=O)[C@H](C)NC(=O)[C@H](C)NC(C)=O)C(=O)N[C@@H](CCC(=O)O)C(=O)N[C@@H](Cc2ccc(O)cc2)C(=O)N[C@@H](Cc2c[nH]c3ccccc23)C(=O)N[C@@H](C)C(=O)N[C@@H](CCC(N)=O)C(=O)N[C@@H](CC(C)C)C(=O)N1)C(=O)N[C@@H](C)C(N)=O [compound 372] (Ac-AAAF[R8]EYWAQL[S5]AA[Nle]A-NH2; staple 5-12) | 100 to 1000 nM | 10 to 100 nM | 100 to 1000 nM | 10 to 100 nM |
| CCCC[C@H](NC(=O)[C@H](C)NC(=O)[C@H](C)NC(=O)[C@]1(C)CCCC=CCCCCCC[C@@](C)(NC(=O)[C@H](Cc2ccccc2)NC(=O)[C@H](C)NC(=O)[C@H](C)NC(=O)[C@H](C)NC(=O)[C@H](C)NC(C)=O)C(=O)N[C@@H](CCC(=O)O)C(=O)N[C@@H](Cc2ccc(O)cc2)C(=O)N[C@@H](Cc2c[nH]c3ccccc23)C(=O)N[C@@H](C)C(=O)N[C@@H](CCC(N)=O)C(=O)N[C@@H](CC(C)C)C(=O)N1)C(=O)N[C@@H](C)C(N)=O [compound 373] (Ac-AAAAF[R8]EYWAQL[S5]AA[Nle]A-NH2; staple 6-13) | 10 to 100 nM | 10 to 100 nM | 10 to 100 nM | 10 to 100 nM |
| CCCC[C@H](NC(=O)[C@H](C)NC(=O)[C@H](C)NC(=O)[C@]1(C)CCCC=CCCCCCC[C@@](C)(NC(=O)[C@H](Cc2ccccc2)NC(=O)[C@@H](NC(=O)[C@H](C)NC(=O)[C@H](C)NC(C)=O)[C@@H](C)O)C(=O)N[C@@H](CCC(=O)O)C(=O)N[C@@H](Cc2ccc(O)cc2)C(=O)N[C@@H](Cc2c[nH]c3ccccc23)C(=O)N[C@@H](C)C(=O)N[C@@H](CCC(N)=O)C(=O)N[C@@H](CC(C)C)C(=O)N1)C(=O)N[C@@H](C)C(N)=O [compound 374] (Ac-AATF[R8]EYWAQL[S5]AA[Nle]A-NH2; staple 5-12) | 10 to 100 nM | < 10 nM | 10 to 100 nM | < 10 nM |
| CCCC[C@H](NC(=O)[C@H](C)NC(=O)[C@H](C)NC(=O)[C@]1(C)CCCC=CCCCCCC[C@@](C)(NC(=O)[C@H](Cc2ccccc2)NC(=O)[C@@H](NC(=O)[C@H](CC(C)C)NC(C)=O)[C@@H](C)O)C(=O)N[C@@H](CCC(=O)O)C(=O)N[C@@H](Cc2ccc(O)cc2)C(=O)N[C@@H](Cc2c[nH]c3ccccc23)C(=O)N[C@@H](C)C(=O)N[C@@H](CCC(N)=O)C(=O)N[C@@H](CC2CCC2)C(=O)N1)C(=O)N[C@@H](C)C(=O)N[C@@H](C)C(N)=O [compound 380] (Ac-LTF[R8]EYWAQ[Cba][S5]AA[Nle]AA-NH2; staple 4-11) | 10 to 100 nM | < 10 nM | 10 to 100 nM | 10 to 100 nM |
| CCCC[C@H](NC(=O)[C@H](C)NC(=O)[C@H](C)NC(=O)[C@]1(C)CCC/C=C/CCCCCC[C@@](C)(NC(=O)[C@H](Cc2ccccc2)NC(=O)[C@@H](NC(=O)[C@H](CC(C)C)NC(C)=O)[C@@H](C)O)C(=O)N[C@@H](C)C(=O)N[C@@H](Cc2ccc(O)cc2)C(=O)N[C@@](C)(Cc2c[nH]c3ccccc23)C(=O)N[C@@H](C)C(=O)N[C@@H](CCC(N)=O)C(=O)N[C@@H](CC(C)C)C(=O)N1)C(=O)N[C@@H](C)C(N)=O [compound 388] | 100 to 1000 nM | 10 to 100 nM | 10 to 100 nM | < 10 nM |
| C=CCCCCCC[C@@](C)(NC(=O)[C@H](Cc1ccccc1)NC(=O)[C@@H](NC(=O)[C@H](CC(C)C)NC(C)=O)[C@@H](C)O)C(=O)N[C@@H](C)C(=O)N[C@@H](Cc1ccc(O)cc1)C(=O)N[C@@H](Cc1c[nH]c2ccccc12)C(=O)N[C@@H](C)C(=O)N[C@@H](CCC(N)=O)C(=O)N[C@@H](CC(C)C)C(=O)N[C@@](C)(CCCC=C)C(=O)N[C@@H](C)C(=O)N[C@@H](C)C(=O)N[C@@H](CCCC)C(=O)N[C@@H](C)C(N)=O [compound 411] | 100 to 1000 nM | 100 to 1000 nM | > 1000 nM | > 1000 nM |
